# Experimental data published in patent US20150335634A1, “ISOQUINOLINE ALKALOID DERIVATIVE FOR ACTIVATING AMP-DEPENDENT PROTEIN KINASE” (ZIH YUAN TANG Biotechnology Co., Ltd, priority 2014, published 2015).
# Experiments:
# [1] = tested on: AMP-dependent protein kinase (AMPK); test: AMPK phosphorylation (Phospho-AMPKα Thr172 Western blot) in C2C12 myocytes; assay type: cell-based, mice
# Method: C2C12 skeletal myoblast cell line was purchased from the Food Industry Research and Development Institute (Hsinchu, Taiwan). The C2C12 cell line was a cell line obtained from culturing the leg skeletal muscle of adult C3H mice in a cell incubator under 95% […], 5% CO2, and 37° C. The cells were cultured in a DMEM medium (Gibco/Invitrogen, Carlsbad, Calif.) containing 4.5 mg/mL glucose, 10% fetal bovine serum (FBS; Gibco/Invitrogen, Carlsbad, Calif.), and an antibiotic solution (with final concentrations of penicillin=100 IU/mL and streptomycin=100 μg/mL). When the C2C12 myoblast cells have proliferated to cover seven-tenths of the area in the petri dish, the fetal bovine serum was replaced by 2% horse serum (Gibco/Invitrogen, Carlsbad, Calif.) so as to induce the C2C12 myoblast cells to become the multi-nuclei myocytes. The C2C12 myoblast cells differentiated into myocytes in 4 days, and the culture medium of the cells was replaced with no-serum DMEM 24 hours before the experiments so as to reduce metabolism of the cells.
# The C2C12 myocytes were treated respectively with 1 μM, 3 μM and 10 μM salsolinol and reticuline for 5 and 15 minutes. Then the C2C12 myocytes were rinsed with PBS buffer solution, and RIPA buffer solution containing protease inhibitors (20 mM Tris-HCl (pH 7.4), 100 mM NaCl, 1 mM EDTA, 1 mM EGTA, 0.1% SDS, 0.5% sodium deoxycholate, 1% NP-40, and 100X protease inhibitor cocktail) was added into the cells. The cells were collected and centrifuged on ice. Then, the concentrations of the supernatant samples were adjusted to be the same.
# The supernatant samples were put through vertical electrophoresis isolation with 8% SDS-PAGE, and the isolated proteins were transferred onto a PVDF blotting membrane. After blotting was completed, the PVDF blotting membrane was removed and blocked for 1 hour under room temperature with a blocking buffer of TBST (Tris-buffered saline with Tween-20) with 5% non-fat milk. Then, the PVDF blotting membrane was placed into a 5% BSA and TBST solution containing the primary monoclonal antibodies Phospho-AMPKα (Thr172) (Cell Signaling) (1:1000) and AMPKα […] (Cell Signaling) (1:1000), respectively, and the primary immunoblotting reaction was performed under 4° C. Then, the PVDF blotting membrane was rinsed 3 times with TBST, and a TBST solution containing the secondary antibody goat anti-rabbit IgG (Perkin Elmer) (1:10000) was added to perform the secondary reaction for one hour under room temperature. Finally, the membrane was rinsed 3 times with TBST before ECL (enhanced chemiluminescence) was added to present color.
# [2] = tested on: ICR mice with Type II diabetes induced by high-sugar high-lipid food; test: oral glucose tolerance test (OGTT) in ICR mice fed with high-lipid food and high fructose syrup; assay type: in vivo
# Method: (§1) ICR mice were each fed with high-lipid food and high fructose syrup for 2 weeks. Then, salsolinol (10 mg/Kg/day) and Glibenclamide (10 mg/Kg) were administered on day 1. After 30 minutes, glucose (1 g/Kg) was orally administered and blood was taken from the mice immediately thereafter (this time point was designated as 0 minute). Blood was also taken later at 30, 60, 90, 120 and 150 minutes, and the blood glucose levels in the serum were determined
# as §1, with “weeks, and then administered with salsolinol (10 mg/Kg/day) and Glibenclamide (10 mg/Kg) for 14 consecutive days. Afterwards,” for “weeks. Then,”, “again administered, and” for “administered on day 1. After 30 minutes,”, “administered after 30 minutes” for “administered”, “determined.” for “determined”
# The effect of blood glucose reduction was evaluated with the oral glucose tolerance test (OGTT). […] Blood was also taken later at 30, 60, 90, 120 and 150 minutes, and the blood glucose levels in the serum were determined after centrifugation.
# [3] = tested on: insulin secretion; test: effect on insulin secretion compared with Glibenclamide; conditions: as opposed to Glibenclamide
Compound,"AMPK phosphorylation relative to control cells ([1]; 3 μM, treated for 5 minutes)","AMPK phosphorylation relative to control cells ([1]; 3 μM, treated for 15 minutes)","AMPK phosphorylation relative to control cells ([1]; 10 μM, treated for 5 minutes)","AMPK phosphorylation relative to control cells ([1]; 10 μM, treated for 15 minutes)","long-term reduction of blood glucose (OGTT) ([2]; 10 mg/Kg/day for 14 consecutive days, glucose 1 g/Kg orally after 30 minutes, compared with Glibenclamide 10 mg/Kg (FIG. 4))","fast reduction of blood glucose (OGTT) ([2]; 10 mg/Kg/day, administration on day 1, glucose 1 g/Kg orally after 30 minutes, compared with Glibenclamide 10 mg/Kg (FIG. 3))",effect on insulin secretion [3]
COc1ccc(C[C@H]2c3cc(O)c(OC)cc3CCN2C)cc1O [reticuline],1.52 times of that in the control cells,1.04 times of that in the control cells,2.05 times of that in the control cells,2.07 times of that in the control cells,,,
CC1NCCc2cc(O)c(O)cc21 (centres unmarked) [salsolinol],,,1.66 times of that in the control cells,,blood glucose-reduction effect similar to that of Glibenclamide,blood glucose-reduction effect similar to that of Glibenclamide,lower effect on insulin secretion
